Laboratory results as given in article PMC5268383, “Inhibition of STAT3 by Anticancer Drug Bendamustine” (PLoS ONE, 2017).
Like-named read-outs stand apart in the source and are kept apart here.

Experiments:
[1] = target: T1, STAT3 Cys712 mutant (C712A) (Homo sapiens, UniProt P40763, C712A); test: SH2 binding AlphaScreen assay with Cys712 mutant recombinant STAT3; details: 100 μM BENDA, 375 nM mutant STAT3, 30 min
T1 construct: Full-length cDNAs were obtained from a human cDNA library by PCR; Avi-tag (N); 6His-tag (N); made in house; host or cells: Escherichia coli (pET-28a; host inferred to be the same BirA-BL21 as for wild type)
Method: Point mutations were introduced into recombinant human STAT3 (rhSTAT3) by inverse PCR. We mutated Cys468, Cys542, Cys550, Cys687, and Cys712 near the SH2 domain to alanine. Inverse PCR was performed by using pBluescript II KS (+) as a template, KOD-Plus-ver. 2 (Toyobo, Osaka, Japan), and the following oligonucleotide primer set: Cys468 (forward: 5’-TCCAACATCG CTCAGATGCC AAATG-3’, reverse: 5′-GATCACCACA ACTGGCAAGG AGTGG-3′); Cys542 (forward: 5′-GAATTATTCAGGGGCTCAGATCACATGGGCTAAAT-3′, reverse: 5′-ACACCAGGTC CCAAGAGTTT CTCTGCC-3′); Cys550 (forward: 5′-GCTAAATTTG CCAAAGAAAA CATGGCTGGC-3′, reverse: 5′-CCATGTGATC TGACACCCTG AATAATTCA CACC-3′); Cys687 (forward: 5′-GGAAAGTATG CTCGGCCAGA GAGCCAG-3′, reverse: 5′-GAATGCCTCC TCCTTGGGAA TGTCAGG-3′); and Cys712 (forward: 5′-AAGTTTATCG CTGTGACACC AACGACCTGC-3′, reverse: 5′-GGTCTTCAGG TATGGGGCAG CGCTAC-3′). Inverse PCR (1 × PCR buffer, 1.5 mM MgSO4, 15 pmol 5′ primer and 3′ primer, 0.2 mM dNTPs, 50 ng STAT3 cDNA, 1 U KOD Plus) was performed under the following conditions: 2 min at 94°C, (10 s at 98°C, and 6.5 min at 68°C)×7 cycles. The amplified fragment was ligated by using Ligation High ver. 2 (Toyobo). The resultant plasmid was cloned into the HindIII/XhoI sites of modified pET-28a (+). The nucleotides coding for human mutant STAT3 in pET-28a (+) were named mutant STAT3 His-Avi-pET28a (+). […]

[2] = target: T2, nuclear STAT3 of MDA-MB-468 cells (Homo sapiens, UniProt P40763); test: STAT3 DNA binding assay (TransAM ELISA); assay type: cell-based; details: MDA-MB-468, 24 h; BENDA 25, 50, 100 μM, HP2 100 μM
T2 construct: endogenous in cells; host or cells: MDA-MB-468
Method: The DNA-binding activity of STAT3 was evaluated with a TransAM ELISA kit (Active Motif, Carlsbad, CA, USA). The assay and nuclear extract preparation were performed according to the manufacturer’s instructions. Heat-denatured nuclear extract was used as a negative control. The nuclear extract (20 μg) was added to each well of a 96-well microtiter plate coated with immobilized oligonucleotides containing the STAT3 consensus binding site and incubated at room temperature for 1 h. They were incubated with anti-STAT3 antibody for 1 h at room temperature, followed by HRP-conjugated antibody for 1 h at room temperature. The developing solution was added, the reaction was terminated by the addition of stop solution, and the absorbance was measured at 450 nm with a reference wavelength of 655 nm (SpectraMax M5SK, Molecular Devices, Sunnyvale, CA, USA).

[3] = system: STAT3-Y705 phosphorylation in MDA-MB-468 cells; test: Western blotting of STAT3-Y705 phosphorylation; assay type: cell-based, human; details: MDA-MB-468, 50 or 100 μM, 24 h
Method: Cells were treated with PhosphoSafe Extraction Reagent. Total proteins (40 μg) were subjected to SDS-PAGE and then transferred onto a nitrocellulose membrane. Membranes were blocked in 5% skim milk in TBS/0.1% Tween 20, incubated with primary antibodies diluted at 1:1000 in 1.5% skim milk in TBS (pH 7.4)/0.1% Tween 20 overnight at 4°C, and then incubated with HRP-conjugated secondary antibodies diluted at 1:5000 in TBS (pH 7.4)/0.1% Tween 20 for 1 h at room temperature. Immunoblots were developed with a chemiluminescent substrate.

Grb2 SH2 = target: T3, Grb2 SH2 (Homo sapiens, UniProt P62993); test: AlphaScreen SH2 binding assay, Grb2
T3 construct: Avi-tag (N); 6His-tag (N)
Method: AlphaScreen assays were performed in a final reaction volume of 25 μL of the assay buffer, containing 10 mM HEPES-NaOH (pH 7.4), 50 mM NaCl, 1 mM EDTA (pH 8.0), 0.1% NP-40, and 10 ng/mL BSA in a 96-well microtiter plate at 25°C. The labeled Phospho-Tyr (pTyr) peptide probe was 5-carboxyfluorescein (FITC)-GpYLPQTV for STAT3, FITC-GpYDKPHVL for STAT1, and FITC-PSpYVNVQN for Grb2. A DMSO solution of BENDA was incubated with 50 nM of each SH2-containing protein for 15 min, 50 nM of the corresponding FITC-pTyr peptide was added, and the mixture was incubated for 90 min. Streptavidin-coated donor beads and anti-FITC acceptor beads were added and incubated for 90 min before the signals were measured with an Envision Xcite plate reader (PerkinElmer Life Sciences, Waltham, MA, USA).

[4] = system: c-myc mRNA in MDA-MB-468 cells; test: RT-PCR of c-myc mRNA; assay type: cell-based, human; details: 8 h
cells = system: cells; design: method as in PMID 22768280; details: cited from earlier work
[5] = system: MDA-MB-468 cells (high P-STAT3); test: WST cell proliferation assay, MDA-MB-468; assay type: cell-based, human; details: 0.1-100 μM, 48 h, WST-8
Method: Cells were plated in a 96-well tissue culture plate (1000 cells per well) and incubated for 48 h. After incubation, the cells were treated with vehicle, 0.1–100 μM BENDA, or HP2 for 48 h. Samples were assayed in triplicate. After incubation, WST-8 solution (10 μL; Dojindo Molecular Technologies, Rockville, MD, USA) was added to each well and incubated at 37°C for 4 h, and the absorbance was read at 450 nm.

[6] = system: cyclin D1, survivin and Bcl-2 mRNA in MDA-MB-468 cells; test: RT-PCR of STAT3 target genes cyclin D1, survivin, Bcl-2; assay type: cell-based, human; details: MDA-MB-468, 50 or 100 μM, 8 h

T1 sequence (P40763 whole entry C712A): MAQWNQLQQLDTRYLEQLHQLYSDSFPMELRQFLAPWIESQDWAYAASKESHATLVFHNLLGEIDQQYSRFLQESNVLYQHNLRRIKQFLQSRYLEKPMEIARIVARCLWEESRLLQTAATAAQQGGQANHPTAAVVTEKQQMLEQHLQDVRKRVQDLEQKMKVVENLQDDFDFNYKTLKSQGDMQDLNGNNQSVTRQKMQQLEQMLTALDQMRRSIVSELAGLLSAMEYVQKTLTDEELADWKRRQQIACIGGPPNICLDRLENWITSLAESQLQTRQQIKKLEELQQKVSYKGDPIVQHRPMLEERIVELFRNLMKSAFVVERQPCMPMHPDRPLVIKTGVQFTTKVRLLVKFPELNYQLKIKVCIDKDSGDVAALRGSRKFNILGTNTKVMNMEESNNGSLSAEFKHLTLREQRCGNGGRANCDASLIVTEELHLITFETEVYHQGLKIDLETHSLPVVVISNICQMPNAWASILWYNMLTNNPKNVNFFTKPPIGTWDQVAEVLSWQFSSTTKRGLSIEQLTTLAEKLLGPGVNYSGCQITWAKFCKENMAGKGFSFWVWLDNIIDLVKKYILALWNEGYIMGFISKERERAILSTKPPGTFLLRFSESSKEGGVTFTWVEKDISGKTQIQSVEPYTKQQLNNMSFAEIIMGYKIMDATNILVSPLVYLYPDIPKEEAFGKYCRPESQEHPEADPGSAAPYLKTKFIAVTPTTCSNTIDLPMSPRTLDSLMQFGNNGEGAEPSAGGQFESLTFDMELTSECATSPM
T2 sequence (P40763 2-770 limits assumed): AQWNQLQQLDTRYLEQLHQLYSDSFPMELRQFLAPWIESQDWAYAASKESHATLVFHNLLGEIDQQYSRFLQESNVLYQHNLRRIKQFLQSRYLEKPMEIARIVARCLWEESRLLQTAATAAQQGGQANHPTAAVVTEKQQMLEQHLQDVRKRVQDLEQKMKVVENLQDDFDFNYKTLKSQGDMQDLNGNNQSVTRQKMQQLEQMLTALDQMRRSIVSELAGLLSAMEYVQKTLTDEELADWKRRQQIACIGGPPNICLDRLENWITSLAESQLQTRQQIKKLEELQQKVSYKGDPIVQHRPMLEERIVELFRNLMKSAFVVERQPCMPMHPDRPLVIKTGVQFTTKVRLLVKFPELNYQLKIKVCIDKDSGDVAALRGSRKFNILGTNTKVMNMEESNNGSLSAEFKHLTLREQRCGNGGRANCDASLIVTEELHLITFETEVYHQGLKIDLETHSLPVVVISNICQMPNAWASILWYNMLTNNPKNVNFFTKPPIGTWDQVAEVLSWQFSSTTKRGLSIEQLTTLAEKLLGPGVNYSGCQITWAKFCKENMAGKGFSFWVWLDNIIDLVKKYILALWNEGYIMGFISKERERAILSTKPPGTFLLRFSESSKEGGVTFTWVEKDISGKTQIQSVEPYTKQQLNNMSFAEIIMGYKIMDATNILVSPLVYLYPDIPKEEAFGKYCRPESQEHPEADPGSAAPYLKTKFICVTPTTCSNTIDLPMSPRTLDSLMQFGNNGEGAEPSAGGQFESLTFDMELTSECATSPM
T3 sequence (P62993 whole entry): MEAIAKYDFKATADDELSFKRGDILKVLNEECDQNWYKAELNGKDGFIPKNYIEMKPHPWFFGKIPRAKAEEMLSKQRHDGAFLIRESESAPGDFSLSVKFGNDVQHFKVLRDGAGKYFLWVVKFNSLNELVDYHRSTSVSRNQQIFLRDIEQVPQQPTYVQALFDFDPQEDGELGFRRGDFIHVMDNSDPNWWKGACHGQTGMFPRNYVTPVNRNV

Cn1c(CCCC(=O)O)nc2cc(N(CCCl)CCCl)ccc21 [BENDA, 4-{5-[bis(2-chloroethyl)amino]-1-methyl-2-benzimidazolyl} butyric acid]
inhibition at 100 µM [1]: 25% | Inhibition of STAT3 binding to oligonucleotides containing STAT3 consensus binding site [2]: inhibited | Phosphorylation of STAT3-Y705 [3]: inhibited the phosphorylation of STAT3-Y705 in a concentration-dependent manner | IC50 (Grb2 SH2): > 100 µM | c-myc mRNA expression, % of vehicle treatment ([4]; MDA-MB-468, 50 μM): 72% | c-myc mRNA expression, % of vehicle treatment ([4]; MDA-MB-468, 100 μM): 33% | Cell cycle arrest (cells; 50 μM): transiently arrested cells in G2 | Cell cycle arrest (cells; 200 μM): arrested cells in S phase | Inhibition of proliferation of MDA-MB-468 cells [5]: inhibited proliferation | Bcl-2 mRNA expression [6]: dose-dependent decrease | cyclin D1 mRNA expression [6]: dose-dependent decrease | survivin mRNA expression [6]: dose-dependent decrease
